Data taken from US20250034216A1, “STEREOSELECTIVE COVALENT LIGANDS FOR ONCOGENIC AND IMMUNOLOGICAL PROTEINS” (The Scripps Research Institute, priority 2021, published 2025).

Legend:
C3orf33_C275 = target: T1, C3orf33_C275 (Homo sapiens, UniProt Q6P1S2); experiment: IA-DTB cysteine engagement; assay type: binding; details: 22Rv1 cells, 20 μM probe, 1 h, relative to DMSO
T1 construct: endogenous in cells; host or cells: 22Rv1
T1 sequence (Q6P1S2 1-294): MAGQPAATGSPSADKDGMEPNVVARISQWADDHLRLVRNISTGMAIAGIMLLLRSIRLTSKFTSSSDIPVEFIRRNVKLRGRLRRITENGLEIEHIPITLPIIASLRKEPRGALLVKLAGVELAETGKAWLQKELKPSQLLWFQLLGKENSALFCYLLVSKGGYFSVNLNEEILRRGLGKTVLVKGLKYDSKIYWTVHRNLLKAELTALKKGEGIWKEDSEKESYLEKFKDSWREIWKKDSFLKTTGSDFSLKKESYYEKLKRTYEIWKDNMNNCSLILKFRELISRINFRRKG
In short: (§1)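 Probe-exposed cells were lysed, IA-DTB-labeled, trypsinized and streptavidin-enriched. Multiplexed TMT quantitation gave engagement ratios versus DMSO, with non-tryptic peptides excluded and intensities normalized to median summed signal.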

DENND2B_C804 = target: T2, DENND2B_C804 (Homo sapiens, UniProt P78524); experiment: IA-DTB cysteine engagement; assay type: binding; details: 22Rv1 cells, 20 μM probe, 1 h, relative to DMSO
T2 construct: endogenous in cells; host or cells: 22Rv1
T2 sequence (P78524 1-1137): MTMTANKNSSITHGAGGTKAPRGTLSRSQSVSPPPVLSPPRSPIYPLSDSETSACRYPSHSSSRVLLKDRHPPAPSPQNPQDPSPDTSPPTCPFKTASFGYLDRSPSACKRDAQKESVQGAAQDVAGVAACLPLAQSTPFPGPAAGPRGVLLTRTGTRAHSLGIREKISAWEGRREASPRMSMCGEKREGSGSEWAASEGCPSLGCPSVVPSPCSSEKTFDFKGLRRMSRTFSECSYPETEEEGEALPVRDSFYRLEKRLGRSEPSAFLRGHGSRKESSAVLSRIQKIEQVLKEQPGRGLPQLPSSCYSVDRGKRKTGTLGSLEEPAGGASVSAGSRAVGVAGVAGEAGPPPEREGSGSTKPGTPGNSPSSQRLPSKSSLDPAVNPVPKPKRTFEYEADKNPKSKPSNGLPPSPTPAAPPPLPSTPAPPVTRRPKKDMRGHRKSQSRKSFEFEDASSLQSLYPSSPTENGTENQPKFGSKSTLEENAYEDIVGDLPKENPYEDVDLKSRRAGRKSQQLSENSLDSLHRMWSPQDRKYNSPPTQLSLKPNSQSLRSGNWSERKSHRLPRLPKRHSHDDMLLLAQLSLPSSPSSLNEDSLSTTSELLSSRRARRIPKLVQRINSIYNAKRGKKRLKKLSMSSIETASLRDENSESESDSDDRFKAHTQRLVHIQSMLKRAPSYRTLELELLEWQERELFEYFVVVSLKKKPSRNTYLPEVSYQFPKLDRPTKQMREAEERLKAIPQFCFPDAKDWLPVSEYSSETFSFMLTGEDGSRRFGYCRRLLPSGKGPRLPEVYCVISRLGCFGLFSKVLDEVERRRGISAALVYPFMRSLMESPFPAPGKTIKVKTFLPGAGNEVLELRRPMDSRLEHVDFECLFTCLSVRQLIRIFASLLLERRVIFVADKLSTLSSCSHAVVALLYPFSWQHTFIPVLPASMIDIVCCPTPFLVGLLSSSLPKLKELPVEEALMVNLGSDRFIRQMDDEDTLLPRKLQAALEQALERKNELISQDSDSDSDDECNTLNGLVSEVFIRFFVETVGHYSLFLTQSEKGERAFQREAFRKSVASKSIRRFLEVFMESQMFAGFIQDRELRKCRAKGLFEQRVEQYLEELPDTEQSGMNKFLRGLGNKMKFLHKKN
In short: as §1

Row | Compound | % engagement C3orf33_C275 (C3orf33_C275) [%] | % engagement DENND2B_C804 (DENND2B_C804) [%]
1 | C=CC(=O)N1C[C@@H](c2ccc(Br)cc2)[C@H]1C(=O)Nc1cccc2cccnc12 [MY-1A, (2S,3R)-1-acryloyl-3-(4-bromophenyl)-N-(quinolin-8-yl)azetidine-2-carboxamide] | 83.5 | 29.25
2 | C=CC(=O)N1C[C@H](c2ccc(Br)cc2)[C@@H]1C(=O)Nc1cccc2cccnc12 [MY-1B, (2R,3S)-1-acryloyl-3-(4-bromophenyl)-N-(quinolin-8-yl)azetidine-2-carboxamide] | 83 | 80.25
3 | C=CC(=O)N1C[C@H](c2ccc(Br)cc2)[C@H]1C(=O)Nc1cccc2cccnc12 [MY-3A, (2S,3S)-1-acryloyl-3-(4-bromophenyl)-N-(quinolin-8-yl)azetidine-2-carboxamide] | 85 | −5.25
4 | C=CC(=O)N1C[C@H](c2ccc(Br)cc2)[C@H]1C(=O)Nc1cccc2cccnc12 [MY-3B, (2S,3S)-1-acryloyl-3-(4-bromophenyl)-N-(quinolin-8-yl)azetidine-2-carboxamide] | 84 | −5.75
